{"source": "patent US6939863B2", "about": "“Prevention of atherosclerosis and restenosis” (priority 2002, dated 2005)", "key": {"[1]": {"test_system": "rat vascular smooth muscle cells", "conditions": "for Pyknosis or karyorhexis (features of apoptosis), propidium iodide-stained cells: 5 millimolar, 24 hours"}, "restenosis": {"test_system": "restenosis", "conditions": "summary table; cited from earlier work"}, "[2]": {"conditions": "summary table; cited from earlier work"}, "[3]": {"test": "Rabbit 12-week study: body weight, chow and water consumption, serum lipids, thyroid hormone index, blood counts, arterial pressure, heart rate", "conditions": "for Weight at sacrifice / Chow consumption: 12 weeks; for Chow consumption / Water consumption: mean ± SD"}, "[4]": {"test_system": "human endothelial cells from umbilical veins", "test": "cells", "protocol": "Rat vascular smooth muscle cells (VSMCs) (passages 5-10) were prepared from Sprague-Dawley rats and cultured in Dulbecco's modified Eagle's medium (DMEM) supplemented with 10% fetal bovine serum (FBS) as previously described (Kirschenlohr et al, in “Human Cell Culture Protocols”, New Jersey, Humana Press Inc, 1996, pp. 318-335). Human endothelial cells from umbilical veins were prepared as described (Morgan, in “Human Cell Culture Protocols”, New Jersey, Humana Press Inc, 1996, pp. 101-152)\nRat vascular smooth muscle cells and human endothelial cells were plated at a density of 10,000 cells per square centimeter in 24-well plates. After 24 hours, cells at 70-80% confluency were treated with propylthiouracil dissolved in 100% dimethylsulfoxide (DMSO) at final concentrations of from 0.05 millimolar to 15 millimolar, or with methimazole (Sigma, St. Louis, Mo.) dissolved in water at the concentrations of from 0.01 millimolar to 1 millimolar for 24-72 hours. Cell numbers were visually counted using a hemocytometer. For the thymidine incorporation study, cells were deprived of serum for 36 hours and labeled with [methyl-^3H]thymidine at […] per milliliter for 12-24 hours after synchronization. Thymidine incorporation was then measured (Newby and George, 1996, Curr. Opin. Cardiol., 11:547). Effects of propylthiouracil and methimazole on the number of vascular smooth muscle cells and human endothelial cells and thymidine incorporation by vascular smooth muscle cells were each expressed as a percentage of the number and thymidine incorporation of control cells maintained in medium containing 0.1% DMSO as vehicle."}, "in vivo": {"test": "in vivo", "conditions": "male, New Zealand White, rabbit, 0.1 % in the drinking water, Serum PTU at sacrifice, 0.1% propylthiouracil in drinking water", "protocol": "Serum propylthiouracil levels were measured by HPLC with mephenoxalone (Tung Yang Chemical Industries, Taiwan) as an internal standard. One hundred microliters of serum was placed into a tube containing 25 microliters of mephenoxalone (Tung Yang Chemical Industries, Taiwan) at 1 milligram per milliliter. All tubes were treated with 25 microliters of 1 molar K2HPO4 and mixed well by vortexing. The contents of each tube were extracted with 2 milliliters of methyl tert-butyl ether (MTBE) (Sigma, St. Louis, Mo.). Tube contents were mixed and centrifuged for 10 minutes at 3000 rpm at 25° C. The supernatant was transferred to a glass tube, dried under nitrogen gas, and reconstituted with 300 microliters of mobile phase. HPLC was performed by using a Hitachi HPLC system (Hitachi, Japan). An ODS column (Cosmosil 5C18-MS, 4.6 millimeters×250 millimeters, 5 micrometers, Nacalai Tesque, Japan) was used in this chromatographic separation, as well as an ultraviolet detector detecting at 275 nanometers. The mobile phase (acetonitrile/water/phosphoric acid, 40/60/0.5, vol/vol/vol) was degassed and filtered before use. The column flow rate was 1.0 milliliter per minute and column temperature was maintained at 40° C."}, "[5]": {"conditions": "propylthiouracil-treated groups"}}, "note": "“Also recorded” adds a separate entry of the source. Where two headings read alike, the source gives them in different places. Wherever Anti-inflammation is given: key: '+' represents the ability; a '−' represents the inability of conversion from a non-contracile phenotype to a contractile phenotype in an in vitro condition; A '↓' represents decrease; a '?' represents no data is available. Wherever Effect on animal models of restenosis, Rat is given: key: '+' represents the ability; a '−' represents the inability of conversion from a non-contracile phenotype to a contractile phenotype in an in vitro condition; A '↓' represents decrease; a '?' represents no data is available."}
{"compound": "CCCc1cc(=O)[nH]c(=S)[nH]1", "note": "[Propylthiouracil, 6-n-propyl-2-thiouracil]", "values": [{"measurement": "Pyknosis or karyorhexis (features of apoptosis), propidium iodide-stained cells", "setting": "[1]", "result": "did not cause any pyknosis or karyorhexis"}, {"measurement": "Pyknosis or karyorhexis (features of apoptosis), propidium iodide-stained cells", "setting": "[1]; listed as propylthiouracil", "result": "did not cause pyknosis or karyorhexis"}, {"measurement": "TUNEL-positive cells in VSMCs", "setting": "[1]; propylthiouracil-treated VSMCs", "result": "absent"}, {"measurement": "Effect on animal models of restenosis, Rat", "setting": "restenosis", "result": "+"}, {"measurement": "Anti-inflammation", "setting": "[2]", "result": "+"}, {"measurement": "Serum (milligrams percent) at sacrifice", "setting": "[3]; 2% cholesterol diet", "result": "43 ± 33", "unit": "milligrams percent"}, {"measurement": "Serum CHO at sacrifice", "setting": "[3]; 2% cholesterol diet", "result": "1965 ± 156", "unit": "milligrams percent"}, {"measurement": "Serum HDL at sacrifice", "setting": "[3]; 2% cholesterol diet", "result": "67 ± 24", "unit": "milligrams percent"}, {"measurement": "Serum LDL at sacrifice", "setting": "[3]; 2% cholesterol diet", "result": "1856 ± 152", "unit": "milligrams percent"}, {"measurement": "Serum TG at sacrifice", "setting": "[3]; 2% cholesterol diet", "result": "213 ± 167", "unit": "milligrams percent"}, {"measurement": "Weight at sacrifice", "setting": "[3]; 2% cholesterol diet", "result": "3.06 ± 0.17", "unit": "kilograms"}, {"measurement": "Chow consumption", "setting": "[3]; 2% cholesterol diet", "result": "123 ± 18", "unit": "grams per day"}, {"measurement": "Water consumption", "setting": "[3]; 2% cholesterol diet", "result": "201 ± 41", "unit": "milliliters per day"}, {"measurement": "Body weight at the end of treatment", "setting": "[3]; PTU and CHO+PTU groups, despite decreased water and chow intake", "result": "did not have a reduction in the body weight"}, {"measurement": "Serum thyroxine (T4)", "setting": "[3]; after 4 weeks of treatment", "result": "decreased-to unmeasurable levels"}, {"measurement": "Serum triiodothyronine (T3)", "setting": "[3]; after 4 weeks of treatment", "result": "decreased-to unmeasurable levels; also recorded: decreased to unmeasurable levels"}, {"measurement": "Thyrotropin (TSH) level", "setting": "[3]; hypothyroid groups", "result": "increase"}, {"measurement": "Arterial pressures and heart rates", "setting": "[3]; hypothyroid propylthiouracil-treated groups", "result": "did not have their arterial pressures and heart rates altered"}, {"measurement": "Serum (milligrams percent) at sacrifice", "setting": "[3]; normal chow", "result": "32 ± 8", "unit": "milligrams percent"}, {"measurement": "Serum CHO at sacrifice", "setting": "[3]; normal chow", "result": "154 ± 22", "unit": "milligrams percent"}, {"measurement": "Serum HDL at sacrifice", "setting": "[3]; normal chow", "result": "43 ± 30", "unit": "milligrams percent"}, {"measurement": "Serum LDL at sacrifice", "setting": "[3]; normal chow", "result": "82 ± 32", "unit": "milligrams percent"}, {"measurement": "Serum TG at sacrifice", "setting": "[3]; normal chow", "result": "175 ± 50", "unit": "milligrams percent"}, {"measurement": "Weight at sacrifice", "setting": "[3]; normal chow", "result": "3.08 ± 0.17", "unit": "kilograms"}, {"measurement": "Chow consumption", "setting": "[3]; normal chow", "result": "113 ± 13", "unit": "grams per day"}, {"measurement": "Water consumption", "setting": "[3]; normal chow", "result": "196 ± 17", "unit": "milliliters per day"}, {"measurement": "Serum cholesterol, triglyceride, LDL, and VLDL levels compared with the control group", "setting": "[3]; normal chow, propylthiouracil only (Group 2)", "result": "slight increase"}, {"measurement": "Agranulocytosis", "setting": "[3]; [5]", "result": "did not occur"}, {"measurement": "Blood counts", "setting": "[3]; [5]", "result": "remained essentially unchanged"}, {"measurement": "Concentration at which significant inhibition of growth of vascular endothelial cells was observed", "setting": "[4]; 24 hours", "result": "≥ 10", "unit": "millimolar"}, {"measurement": "Growth of vascular endothelial cells", "setting": "[4]; 24 hours, concentrations of up to 7.5 millimolar", "result": "did not significantly inhibit"}, {"measurement": "Difference in inhibitory effect, vascular endothelial cells less than vascular smooth muscle cells", "setting": "[4]; FIG. 7", "result": "20-30%"}, {"measurement": "IC50", "setting": "[4]; Homo sapiens, Endothelial cell, 24 h, read-out: IC50 for endothelial cells (proliferation)", "result": 12, "unit": "mM"}, {"measurement": "Endothelial cellular function", "setting": "[4]; summary table, propylthiouracil", "result": "+"}, {"measurement": "concentration at 12 weeks", "setting": "in vivo; 2% cholesterol diet", "result": "1330 ± 1200", "unit": "ng/mL"}, {"measurement": "concentration at 12 weeks", "setting": "in vivo; normal chow", "result": "1570 ± 700", "unit": "ng/mL"}]}
